Assay results reported in patent publication US8815499B2, “In situ detoxification of fermentation inhibitors with reducing agents” (priority 2009, dated 2014).
Read-outs that look alike come from different tables or passages of the source.

How the values were obtained:
[1] = tested on: baker's yeast (Saccharomyces cerevisiae); assay type: cell-based; conditions: for Glucose consumption rates and amounts of ethanol produced: FIGS. 1 and 2
Experimental: The pH of the sugarcane bagass and spruce hydrolysates were adjusted to 5.5 with a 5 M solution of sodium hydroxide. The conditioning of each hydrolysate was performed in eight 100-mL glass vessels equipped with magnetic stirrer bars. 26 mL hydrolysate was added to all vessels, and the vessels were placed on a magnetic stirrer plate (IKA-Werke, Staufen, Germany). Sodium dithionite (chemical grade; >87%, Merck, Darmstadt, Germany) was added to hydrolysates in the concentrations 5 and 10 mM. Additions of sodium sulphite to 5 and 10 mM were also performed. The additions were made at room temperature (23° C.) and the samples were kept for 10 min with stirring. The experiments were performed in duplicates.
The efficiency of the additions of the reducing agents was compared with alkali detoxification.
Ethanol measurements were performed by using an enzymatic kit (Ethanol UV-method, Boehringer Mannheim GmbH, Mannheim, Germany). Fermentation experiments were performed to evaluate the effectiveness of the additions and treatments. For comparison, untreated hydrolysates were included in the fermentation experiments as well as reference fermentations of sugar-based medium with an amount of fermentable sugars (i.e. glucose and mannose) corresponding to that in the hydrolysate samples. The fermentations were carried out using baker's yeast (Saccharomyces cerevisiae) (Jästbolaget AB, Rotebro, Sweden). The yeast inoculum was prepared in 750-mL cotton-plugged shake flasks with 300 mL YEPD medium ([…], 2% D-glucose). The flasks were inoculated and incubated with agitation at 30° C. for approximately 12 h. The cells were harvested in the late exponential growth phase by centrifugation (Hermla Z206A, Hermle Labortechnik GmbH, Wehingen, Germany) at 1,500 g for 5 min. The cells were resuspended in an appropriate amount of sterile water to achieve an inoculum consisting of 2.0 g/L (cell dry weight) in all fermentation vessels. The fermentation was carried out in 14 25-mL glass flasks equipped with magnets for stirring and sealed with rubber plugs pierced with cannulas for letting out carbon dioxide. The hydrolysate samples (23.75 mL), or alternatively the sugar solution for reference fermentations, were added to the fermentation flasks along with 0.5 mL of a nutrient solution (150 g/L yeast extract, 75 g/L (NH4)2HPO4, 3.75 g/L MgSO4.7 H2O, 238.2 g/L NaH2PO4.H2O), and 0.75 mL of yeast inoculum. The flasks were incubated at 30° C. in a water bath with magnetic stirring (IKA-Werke). Samples for measurement of sugars and ethanol were withdrawn during the fermentation. The glucose levels during the fermentation were estimated by using a glucometer (Glucometer Elite XL, Bayer AG, Leverkusen, Germany).

[2] = tested on: yeast Saccharomyces cerevisiae; test: Simultaneous saccharification and fermentation (SSF) of spruce slurry; assay type: cell-based; conditions: for Ethanol concentration: after 70 hours
Experimental: Addition of sodium dithionite and sodium sulphite was tested in an SSF process. Spruce was pretreated as described in Example 1 above. The spruce slurry was adjusted to pH 5.4 with a 5 M solution of sodium hydroxide. Ten 250-mL shake flasks equipped with magnetic stirrer bars were filled with 100 g of spruce slurry. Sodium dithionite or sodium sulphite was added to the slurries to final concentrations of 7.5 and 10 mM. The additions were performed at room temperature (23° C.) for 10 min with stirring. Duplicate experiments were made. Cellulase and cellobiase preparations were prepared and added to the slurry using the enzyme activity loadings as described in Example 1 above. Further, the yeast inoculum was prepared according to Example 1 above. Inoculums were added to give a start concentration of 2.0 g/L (cell dry weight) in every flask. No source of extra nutrients was added. For comparison, two flasks with spruce slurry to which no reducing agents had been added were included in the experiment. The flasks were incubated at 35° C. for 69 h in a water bath with magnetic stirring. The flasks were sealed with Parafilm (Pechiney Plastic Packaging Company, Chicago, Ill., USA) to prevent evaporation of ethanol. Samples were withdrawn for analysis of ethanol according to Example 1 above.
A spruce slurry was prepared according to Examples 1 and 2 above. Different flasks were filled with 100 g each of the spruce slurry and were subjected to a SSF process according to Example 2 above, but with different amounts of dithionite and sulphite added. The produced ethanol was monitored during the fermentation. […]

[3] = tested on: yeast Saccharomyces cerevisiae; test: Simultaneous saccharification and fermentation (SSF) of sugarcane bagass slurry; assay type: cell-based; conditions: 7.5 and 10 mM, FIG. 9
Experimental: SSF experiments were also performed with sugarcane bagass slurries. […] Reducing agents, dithionite and sulphite, respectively, were added 10 min prior to inoculum in concentrations of studied 7.5 and 10 mM. The ethanol concentration was measured after 13 and 45 hours according to the protocol described in Example 1.

[4] = tested on: yeast Saccharomyces cerevisiae; conditions: for Ethanol concentration / Productivity / Yield: 15.0 mM; for viability at 10000 µM: Saccharomyces cerevisiae, read-out: Viable cells; for Fermentability (glucose consumption): acid spruce hydrolysate
Experimental: A spruce slurry was prepared an subjected to acidic hydrolysis as described in Example 6. […] Sodium dithionite was added to different samples to concentrations of 2.5, 5, 7.5, 10, 12.5, and 15 mM. The treatments were performed at 21° C. for 5 min with stirring. In addition, treatments with 0.1% (7.9 mM) and 1% (79.3 mM) sodium sulphite were performed. […] Furthermore, a sugar solution (glucose 18 g/L, mannose 14 g/L) was prepared to evaluate if the effect of the sodium dithionite treatment was due to an effect on the hydrolysate or the ethanolic fermentation with yeast. Half of the sugar solution was treated with 10 mM sodium dithionite, whereas the rest was left untreated as a reference. The volumes of treated and untreated samples were equalized with water and the pH was adjusted to pH 5.5 prior to the fermentation. Fermentation was performed with the yeast Saccharomyces cerevisiae as described in the previous Examples.
Spruce hydrolysate samples were prepared as in Example 6.
Two samples were treated with DTT to 2 and 20 mM, respectively, two samples were treated with ascorbic acid to 10 and 100 mM, respectively and two samples were treated with glutathione to 1 and 10 mM, respectively.
The treatment time was 3 h for all samples and fermentation was performed as described in the previous Examples.

[5] = Fermentation of sugar solution treated with sodium dithionite; assay type: cell-based; conditions: Saccharomyces cerevisiae, Saccharomyces cerevisiae yeast cells in fermentation, read-out: Viable cells
[6] = tested on: yeast Saccharomyces cerevisiae; test: Fermentation of sugar solution with model inhibitor coniferyl aldehyde; conditions: for viability at 10000 µM: Saccharomyces cerevisiae, read-out: Viable cells
Experimental: A sugar solution (glucose 18 g/L, mannose 14 g/L) with a coniferyl aldehyde concentration of 2.5 mM was prepared. Half of the solution was treated with 10 mM of sodium dithionite and the rest of the solution was left untreated as a reference. Fermentation was performed with the yeast Saccharomyces cerevisiae as described in the previous Examples.

[7] = acid spruce hydrolysate, 2.5-15 mM, Table 4
[8] = bagass hydrolysate, 6 h fermentation, 10 mM
[9] = spruce hydrolysate, 14 h fermentation, 10 mM

O=S([O-])S(=O)[O-].[Na+].[Na+] [Dithionite, Sodium dithionite]
Balanced ethanol yield [1, 8]: 0.28 g EtOH/Σglucose & mannose prior to detoxification
Productivity [1, 8]: 3.9 g EtOH × L^−1 × h^−1
Yield [1, 8]: 0.34 g EtOH/g consumed glucose & mannose
Ethanol production ([1]; bagass hydrolysate, 6 h fermentation, FIG. 4): high ethanol production
Glucose consumption rates and amounts of ethanol produced ([1]; spruce hydrolysate, 5 mM): substantial improvement
Glucose consumption rates and amounts of ethanol produced ([1]; spruce hydrolysate, 10 mM): comparable to those of the reference fermentation
Balanced ethanol yield [1, 9]: 0.34 g EtOH/Σglucose & mannose prior to detoxification
Productivity [1, 9]: 2.5 g EtOH × L^−1 × h^−1
Yield [1, 9]: 0.37 g EtOH/g consumed glucose & mannose
Ethanol concentration ([2]; 2.5 mM): about 10 g/L
Ethanol concentration ([2]; 5 mM): 35 to 40 g/L
Ethanol concentration ([2]; 7.5 mM): highest ethanol production
Time after which ethanol formation leveled off ([2]; 10 mM, FIG. 5): about 45 h
Improvement of ethanol production, dithionite versus sulphite ([2]; 10 mM, FIG. 8): better improvement than the addition of sulphite
Ethanol concentration ([2]; 10 mM): highest ethanol production
Ethanol concentration ([2]; 15 mM): highest ethanol production
Ethanol concentration ([2]; 20 mM): 35 to 40 g/L
Ethanol concentration ([2]; 30 mM): about 30 g/L
Ethanol production compared to the untreated hydrolysate ([2]; 7.5 and 10 mM, FIG. 5): higher ethanol production
Fermentability (ethanol production after 13 and 45 hours) [3]: improved fermentability
Ethanol concentration ([4]; 2.75 h): 5.07 g/L
Productivity ([4]; 2.75 h): 1.84 g EtOH × L^−1 × h^−1
Yield ([4]; 2.75 h): 0.37 g EtOH/g consumed glucose and mannose
Ethanol concentration ([4]; 4.25 h): 9.81 g/L
Productivity ([4]; 4.25 h): 2.31 g EtOH × L^−1 × h^−1
Yield ([4]; 4.25 h): 0.44 g EtOH/g consumed glucose and mannose
Ethanol concentration ([4]; 6.25 h): 14.59 g/L
Productivity ([4]; 6.25 h): 2.33 g EtOH × L^−1 × h^−1
Yield ([4]; 6.25 h): 0.47 g EtOH/g consumed glucose and mannose
Ethanol concentration ([4]; 9.25 h): 15.47 g/L
Productivity ([4]; 9.25 h): 1.67 g EtOH × L^−1 × h^−1
Yield ([4]; 9.25 h): 0.49 g EtOH/g consumed glucose and mannose
viability at 10000 µM ([4]; 2.25 h): 91%
viability at 10000 µM ([4]; 7 h): 96.7 ± 2.5%
Fermentability (glucose consumption) ([4]; 15 mM, FIG. 11): fermented about as well as the NH4OH treated sample and the plain sugar solution
Fermentability (glucose consumption) ([4]; 2.5-15 mM, FIG. 10): improved fermentability
viability at 2.25 h, 10 mM ([5]; pH 5.5, fermentation time 2.25 h): 80.8 ± 4.5%
viability at 7 h, 10 mM ([5]; pH 5.5, fermentation time 7 h): 84.3 ± 2.9%
viability at 10000 µM ([6]; 2.25 h): 76.7%
viability at 10000 µM ([6]; 7 h): 75 ± 8%
Glucose consumption rate ([6]; sugar solution with coniferyl aldehyde (2.5 mM), sodium dithionite 10 mM, FIG. 12): much higher
Degradation of monosaccharide [7]: No significant degradation
